# Assay results from PubChem BioAssay (NCI).
#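 Exposure lasted 48 hours, with cells grown in 96-well plates and compounds tested at five concentrations. Here, GI50 denotes the concentration required for 50% inhibition of growth. TGI marks complete inhibition of growth.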
# How the values were obtained:
# Test in all cases: NCI tumour cell line growth inhibition, 48 h
# 786-0 renal = test system: 786-0 renal
# ACHN renal = test system: ACHN renal
# DU-145 prostate = test system: DU-145 prostate
# K-562 leukemia = test system: K-562 leukemia
# LOX IMVI melanoma = test system: LOX IMVI melanoma
# RXF 393 renal = test system: RXF 393 renal
# SF-268 CNS = test system: SF-268 CNS
# SNB-19 CNS = test system: SNB-19 CNS
SMILES,GI50 (786-0 renal),TGI (786-0 renal),GI50 (ACHN renal),TGI (ACHN renal),GI50 (DU-145 prostate),TGI (DU-145 prostate),GI50 (K-562 leukemia),TGI (K-562 leukemia),GI50 (LOX IMVI melanoma),TGI (LOX IMVI melanoma),GI50 (RXF 393 renal),TGI (RXF 393 renal),GI50 (SF-268 CNS),TGI (SF-268 CNS),GI50 (SNB-19 CNS),TGI (SNB-19 CNS)
C[C@@H](NC(=O)/C(C#N)=C/c1ccc([N+](=O)[O-])cc1)c1ccccc1,2.54 µM,8.84 µM,1.76 µM,3.29 µM,2.07 µM,4.33 µM,2.75 µM,14 µM,1.94 µM,4.64 µM,1.62 µM,3.04 µM,3.69 µM,13.4 µM,2.52 µM,7.31 µM
COc1cc(C(=O)N2CCN(c3ccccc3)CC2)c2ccccc2n1,0.127 µM,> 100 µM,0.382 µM,> 100 µM,0.0648 µM,0.468 µM,0.0782 µM,> 100 µM,0.086 µM,> 52 µM,0.0927 µM,> 100 µM,0.2 µM,> 100 µM,0.929 µM,> 100 µM
COc1ccc2c(c1)CC[C@@H]1[C@@H]2CC[C@]2(C)c3c(cc(C(=O)O)c4sccc34)C[C@@H]12,16.9 µM,32.5 µM,18.9 µM,78.4 µM,19.2 µM,36.2 µM,5.79 µM,20.9 µM,17.7 µM,42.8 µM,16.5 µM,36 µM,17.6 µM,48.3 µM,17.8 µM,48.4 µM
COc1ccc(Nc2cc(C)nc(NCc3ccccc3)n2)cc1,3.49 µM,17.6 µM,4.44 µM,17.7 µM,10.6 µM,23 µM,2.69 µM,15.3 µM,2.2 µM,6.38 µM,3.07 µM,14.4 µM,13.1 µM,36.3 µM,5.02 µM,28.8 µM
CCOC(=O)Nc1nc2ccc(Br)cc2s1,> 50 µM,> 50 µM,> 50 µM,> 50 µM,> 50 µM,> 50 µM,> 50 µM,> 50 µM,> 50 µM,> 50 µM,> 50 µM,> 50 µM,> 50 µM,> 50 µM,> 50 µM,> 50 µM
N/C(=N/N=C/c1ccccc1)N/N=C\c1ccccc1,5.2 µM,43.9 µM,6.4 µM,> 100 µM,5.54 µM,92.7 µM,3.35 µM,> 100 µM,6.27 µM,84.7 µM,2.46 µM,8.48 µM,9.66 µM,> 100 µM,> 100 µM,> 100 µM
O=C([O][Hg][CH2]C1OCCOC1[CH2][Hg][O]C(=O)c1ccccc1)c1ccccc1 (stereo unspecified),12.9 µM,25.5 µM,1.95 µM,3.4 µM,16.1 µM,29.6 µM,1.83 µM,5.46 µM,3.66 µM,7.56 µM,2.08 µM,4.06 µM,17.2 µM,30.9 µM,16.5 µM,30.8 µM
C#CCN(Cc1nc2cc(C(F)(F)F)ccc2nc1-c1ccccc1)c1ccc(C)cc1,15.5 µM,> 42.8 µM,–,> 33.5 µM,> 34.5 µM,> 77.9 µM,33 µM,> 100 µM,24.8 µM,> 48.5 µM,4.18 µM,28 µM,17 µM,> 100 µM,6.2 µM,> 36.1 µM
COc1cc(-c2oc3c(OC)cc(OC)c(O)c3c(=O)c2OC)cc(OC)c1OC,–,> 100 µM,–,> 100 µM,–,> 100 µM,–,> 100 µM,–,> 100 µM,–,> 100 µM,–,> 100 µM,–,> 100 µM
COCCNc1ccc2c3c(cccc13)C(=O)N(CCN(C)C)C2=O,9.13 µM,> 25 µM,4.64 µM,> 25 µM,9.41 µM,> 25 µM,4.66 µM,11.5 µM,7.06 µM,> 25 µM,5.07 µM,16.9 µM,8.95 µM,> 25 µM,4.11 µM,> 25 µM
COc1ccc2cc(C(=O)/C=C/c3ccc(N(C)C)cc3)ccc2c1,> 100 µM,> 100 µM,81.4 µM,> 100 µM,> 100 µM,> 100 µM,> 100 µM,> 100 µM,48.1 µM,> 100 µM,41.4 µM,> 100 µM,42.6 µM,> 100 µM,> 100 µM,> 100 µM
Cn1cc(C2=C(c3c4n(c5ccccc35)CCC(CN)C4)C(=O)NC2=O)c2ccccc21 (stereo unspecified),4.25 µM,8.38 µM,3.2 µM,7.02 µM,3.63 µM,7.02 µM,3.54 µM,8.27 µM,3.83 µM,7.53 µM,3.01 µM,6.47 µM,3.95 µM,7.65 µM,3.96 µM,9.26 µM
COc1cc(/C(=C2/O[C@@H]([C@H]3COC(C)(C)O3)[C@H]3OC(C)(C)O[C@@H]23)c2ccc3ccccc3c2)cc(OC)c1OC,2.3 µM,4.47 µM,4.4 µM,> 100 µM,4.33 µM,> 100 µM,4.02 µM,> 100 µM,3.39 µM,19.8 µM,2.54 µM,5.99 µM,3.13 µM,15.9 µM,2.49 µM,6.08 µM
CCOC(=O)c1cc(C(=O)c2cc(OC)c(OC)c(OC)c2)n2c1ccc1ccccc12,0.693 µM,> 100 µM,0.997 µM,> 100 µM,0.372 µM,> 100 µM,0.0604 µM,> 100 µM,0.669 µM,> 100 µM,0.22 µM,0.81 µM,1.94 µM,> 100 µM,0.636 µM,> 100 µM
CC[C@@H](C(=O)[C@H](C)[C@H](O)[C@@H](C)[C@H]1O[C@H]([C@@H](CC)C(=O)N(CC)CC)CC[C@H]1C)C1O[C@]2(C=C[C@@H](O)[C@]3(CC[C@@](C)([C@H]4CC[C@](O)(CC)[C@H](C)O4)O3)O2)[C@H](C)C[C@@H]1C (stereo partly specified),3.55 µM,17.5 µM,2.93 µM,10 µM,3.91 µM,14.9 µM,3.12 µM,19.4 µM,1.83 µM,4.29 µM,2.06 µM,5.87 µM,3.6 µM,19.3 µM,3.24 µM,16.8 µM
